Article PMC4875962 (Clinical Pharmacokinetics, 2015)
Where two headings read alike, the source gives them in different places.

How the values were obtained:
[1] = concentrations of 0.2–5 µg/mL; cited from earlier work
OAT1 = conditions: cited from earlier work
OAT3 [2] = conditions: cited from earlier work
OAT3 [3] = conditions: read-out: IC50, inhibitory effect on OAT3; cited from earlier work
OCT1 = conditions: read-out: IC50, inhibitory effect on OCT1; cited from earlier work
[4] = test system: thrombin generation and platelet activation; conditions: postdose; cited from earlier work
[5] = cited from earlier work
[6] = cited from earlier work; remark: listed apart in the source
CYP1A2 = assay: Induction of gene expression in human hepatocytes; conditions: data on file
[7] = test system: multidrug resistance protein 1 (MDR1; P-gp); assay: Induction of gene expression in human hepatocytes; conditions: data on file
[8] = Mild impairment: CLCR ≥50–≤80 mL/min
[9] = Moderate impairment: CLCR ≥30–<50 mL/min
[10] = Severe impairment: CLCR <30 mL/min

For `CN1CCc2nc(C(=O)N[C@@H]3C[C@@H](C(=O)N(C)C)CC[C@@H]3NC(=O)C(=O)Nc3ccc(Cl)cn3)sc2C1` [edoxaban], the “in vitro total plasma protein binding” value [1] is given as “about 55%”, the “substrate of OAT1” value (OAT1) is given as “is not a substrate” and the “substrate of OAT3” value (OAT3 [2]) is given as “is not a substrate”. The IC50 (OAT3 [3]) was no less than 100 µM, the IC50 (OCT1) was no less than 100 µM and the “time of nadir for shed blood F1+2 and β-thromboglobulin” value [4] was 1.5 h. The “safety assessed by bleeding events versus warfarin” value [5] was “improved safety”, the efficacy versus warfarin ([5]; non-valvular AF, deep vein thrombosis and pulmonary embolism) was “noninferior” and the “AUC∞” value [6, 8] was 636 ± 152 ng·h/mL. The CL/F [6, 8] was 24.8 ± 6.00 L/h, the CLR [6, 8] was 7.68 ± 2.57 L/h and the “AUC∞” value [6, 9] was 816 ± 209 ng·h/mL. The C max [6, 9] was 115 ± 42.3 ng/mL, the CL/F [6, 9] was 19.4 ± 4.69 L/h and the CLR [6, 9] was 4.30 ± 1.72 L/h. The “AUC∞” value ([6]; Normal: CLCR >80 mL/min) was 453 ± 102 ng·h/mL, the CL/F ([6]; Normal: CLCR >80 mL/min) was 34.6 ± 7.32 L/h and the C max [6, 10] was 91.9 ± 32.8 ng/mL. The CL/F [6, 10] was 18.5 ± 4.87 L/h, the CLR [6, 10] was 2.12 ± 0.88 L/h and the “higher total exposure vs normal renal function” value ([6]; mild renal impairment (CLCR ≥50–≤80 mL/min)) was 32%. The “higher total exposure vs normal renal function” value ([6]; moderate renal impairment (CLCR ≥30–<50 mL/min)) was 74%, the “higher total exposure vs normal renal function” value ([6]; severe renal impairment (CLCR <30 mL/min)) was 72% and the “induction of gene expression of CYP1A2” value (CYP1A2) was “do not induce”. The “induction of gene expression of MDR1 (P-gp)” value [7] was “do not induce”.
